pIC50: −log10 of the molar value.
Experiments:
[1] = target: T1, cannabinoid receptor (Rattus norvegicus, UniProt P20272); test: Receptor binding assay, [^3 H]CP-55,940, rat forebrain membrane, Tris buffer with bovine serum albumin; details: for affinity for the cannabinoid receptor (in words): demonstrated by IC50 values; for pIC50: rat forebrain membrane, 0.8 nM [^3 H]CP-55,940, 0.1% bovine serum albumin, pH 7.4, 1 hour at 30° C.
T1 construct: membrane preparations from rat forebrains; from tissue; host or cells: rat forebrain membranes
Experimental: The affinity of compositions of this invention for cannabinoid binding sites was tested by using membrane preparations from rat forebrains. A composition is tested by incubating various concentrations of the composition with approximately 50 μg of rat forebrain membrane, 20 mM Tris Buffer, 3 mM MgCl2, 1 mM EDTA (pH, 7.4) containing 0.1% bovine serum albumin, and 0.8 nM of the cannabinoid radioligand [^3 H]CP-55,940, (Dupont-NEN). Assays were incubated in Regisil-treated test tubes for 1 hour at 30° C. and were subsequently filtered on GF/C filters using a Brandell M-24 Cell Harvester. Following four washes with 20 mM Tris buffer (pH 7.4) and 3 mM MgCl2, the GF/C filters were collected, and shaken for 1 hour with 2 mL of 0.1% SDS. Ligand binding was counted on a Beckman liquid scintillation counter.
Non-specific binding was assessed from tubes containing 250 nM desacetyllevo-nantradol by the method described in W. A. Devane et al., Determination and Characterization of a Cannabinoid Receptor in Rat Brain, Mol. Pharmacol., 34:605 (1988). Data were collected from 3 experiments performed on 11-hydroxy-7'-azido-1',1'-dimethylheptyl-Δ^8 -THC and on 11-hydroxy-7'-isothiocyanate-1',1'-dimethyl-heptyl-Δ^8 -THC, each.

[2] = target: T1, cannabinoid receptor; test: Receptor inactivation test (equilibration / photoirradiation), rat forebrain membranes; type: binding; details: 1 hour at 30° C., azide: UV irradiated 13 minutes, washed
Experimental: The ability of affinity ligands to inactivate the cannabinoid receptor in vitro was tested through photoirradiation experiments. All procedures involving affinity ligands were conducted in the dark using only a safety light. Rat forebrain membranes (1-3 mg) in 20 mM Tris Buffer, 3 mM MgCl2, and 1 mM EDTA (pH 7.4) were incubated with an appropriate amount of either 11-hydroxy-7'-azido-1',1'-dimethylheptyl-Δ^8 -THC or 11-hydroxy-7'-isothiocyanate-1',1'-dimethyl-heptyl-Δ^8 -THC, in a six-well culture plate for 1 hour at 30° C. At the end of the equilibration membranes incubated with 11-hydroxy-7'-azido-1',1'-dimethylheptyl-Δ^8 -THC were placed on ice and irradiated for 13 minutes with UV light. Membranes incubated with either of the two compounds were then pelleted using a bench top microcentrifuge. The pellets were subsequently washed at least three times with the working buffer containing 1 mg/mL bovine serum albumin, allowing at least 10 minutes between each wash for equilibration. The final pellets were resuspended in the working buffer and assayed for cannabinoid binding activity by the method of Devane et al., referenced above.

[3] = tested on: male ICR (Institute of Cancer Research) mice; test: Antinociceptive activity in the mouse tail-flick assay; type: in vivo; details: intravenous injection; for ED50: Mus musculus, read-out: Antinociception MPE, potency (ED50 value)
Experimental: (§1) 5'-azido-THC was evaluated in vivo and compared to the parent compound (-)-Δ^8 -THC for cannabimimetic activity. Both analogs were tested in male ICR (Institute of Cancer Research) mice (Harlan, Frederick, Md.) following intravenous injection, for their abilities to produce sedation (decreased locomotor activity) and catalepsy (induction of ring immobility) as measures of drug-induced behavioral effects. They were also evaluated in the same mice for their abilities to produce hypothermia and antinociceptive activity in the mouse tail-flick assay.
(§2) The results obtained are shown in Table I. Dose-response data were analyzed statistically by ANOVA, and the potency (ED50 value) and efficacy (maximum effect) were determined. The maximum effects given represent percent inhibition (of locomotor activity), ° C. (of hypothermia), percent immobility (of catalepsy) and percent MPE (maximum possible effect of latency of antiociception procedure).
(§3) This evaluation was performed by methods described in M. D. Compton et al., J. Med. Chem., 34:3310 (1991), A. Makriyannis et al., Life Sci., 47:2173 (1990), and A. Charalandous et al., Pharmacol. Biochem. Behav., 40:509 (1991).

[4] = tested on: male ICR (Institute of Cancer Research) mice; test: Hypothermia in mice; type: in vivo; details: for ED50: Mus musculus, read-out: Hypothermia (Δtemperature), potency (ED50 value); for ED50 / Hypothermia (Δtemperature), efficacy (maximum effect): intravenous injection, mice
Experimental: as §1, §2, §3

[5] = target: T1, cannabinoid receptor; test: Alternate affinity test, [^3 H]CP-55,940, rat forebrain membrane, potassium diethyl malonate buffer with β-cyclodextrin; type: binding; details: 100 fmol/mL [^3 H]CP-55,940, 0.01% β-cyclodextrin, pH 7.4, 1 hour at 30° C.
Experimental: An alternate affinity test used approximately 30 μg of rat forebrain membrane in a buffer containing 20 mM potassium diethyl malonate (pH 7.4), 3 mM MgCl2, 0.01% β-cyclodextrin, and 100 fmol/mL [^3 H]CP-55,940, (Dupont-NEN). The assays were incubated in Regisil-treated test tubes for 1 hour at 30° C. and were subsequently filtered on GF/C filters. Just prior to filtration, 200 μL of 50 mg/mL bovine serum albumin is added. Following filtration, ligand binding was counted on a Beckman liquid scintillation counter.
Non-specific binding was assessed from tubes containing 100 nM desacetyllevo-nantradol by the method described in W. A. Devane et al., Determination and Characterization of a Cannabinoid Receptor in Rat Brain, Mol. Pharmacol., 34:605 (1988).

[6] = target: T1, cannabinoid receptor; test: Alternate receptor inactivation test (equilibration and UV irradiation), rat forebrain membrane; type: binding; details: 1 hour at 30° C., shortwave UV light
Experimental: In an alternate receptor inactivation test, 0.5-3 mg of rat forebrain membrane was incubated with (-)5'-azido-Δ^8 -THC, previously resuspended in 5% β-cyclodextrin in 12-well tissue culture plates containing 1 mL of 20 mM potassium diethyl malonate (pH 7.4) and 0.01% β-cyclodextrin. The assay was incubated for 1 hour at 30° C. and then was placed on ice and irradiated for 13 minutes with shortwave UV light from a UVGL-25 mineralight at 10 cm distance […].

[7] = tested on: male ICR (Institute of Cancer Research) mice; test: Catalepsy (induction of ring immobility) in mice; type: in vivo; details: for ED50: Mus musculus, read-out: Catalepsy Immobility, potency (ED50 value); for ED50 / Catalepsy Immobility, efficacy (maximum effect), percent immobility: intravenous injection, mice
Experimental: as §1, §2, §3

[8] = tested on: male ICR (Institute of Cancer Research) mice; test: Sedation (decreased locomotor activity) in mice; type: in vivo; details: intravenous injection; for ED50: Mus musculus, read-out: Locomotion Inhibition, potency (ED50 value)
Experimental: as §1, §2, §3

[9] = milligram/kilogram basis, vs (-)-Δ^8 -THC

T1 sequence (P20272 whole entry): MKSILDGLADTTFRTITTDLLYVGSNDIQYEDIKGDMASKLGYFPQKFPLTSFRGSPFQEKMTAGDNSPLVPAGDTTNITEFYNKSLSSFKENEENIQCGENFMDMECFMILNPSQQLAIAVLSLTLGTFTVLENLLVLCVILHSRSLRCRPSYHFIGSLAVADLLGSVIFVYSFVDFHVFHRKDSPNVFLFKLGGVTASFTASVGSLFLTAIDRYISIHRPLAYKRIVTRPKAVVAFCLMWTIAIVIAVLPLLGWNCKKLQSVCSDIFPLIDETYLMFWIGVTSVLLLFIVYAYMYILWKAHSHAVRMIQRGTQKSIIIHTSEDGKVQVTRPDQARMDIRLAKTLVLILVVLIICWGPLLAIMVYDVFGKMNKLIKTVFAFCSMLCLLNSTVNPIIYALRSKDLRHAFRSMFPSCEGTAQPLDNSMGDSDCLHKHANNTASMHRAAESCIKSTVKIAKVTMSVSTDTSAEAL

SMILES: CC(C)(CCCCCCN=[N+]=[N-])c1cc(O)c2c(c1)OC(C)(C)[C@@H]1CC=C(CO)C[C@@H]21 [11-hydroxy-7'-azido-1',1'-dimethylheptyl-Δ^8 -THC]
- affinity for the cannabinoid receptor (in words) [1]: high affinity
- pIC50 [1]: 8.60
- ability to inactivate the cannabinoid receptor in vitro [2]: completely inactivate the cannabinoid receptor

SMILES: CC(C)(CCCCCCN=C=S)c1cc(O)c2c(c1)OC(C)(C)[C@@H]1CC=C(CO)C[C@@H]21 [11-hydroxy-7'-isothiocyanate-1',1'-dimethylheptyl-Δ^8 -THC]
- affinity for the cannabinoid receptor (in words) [1]: high affinity
- pIC50 [1]: 8.82
- ability to inactivate the cannabinoid receptor in vitro [2]: completely inactivate the cannabinoid receptor

SMILES: CC1=CC[C@@H]2[C@@H](C1)c1c(O)cc(CCCCCN=[N+]=[N-])cc1OC2(C)C [(-)5'-azido-Δ^8 -THC]
- ED50 [3]: 0.1 mg/kg
- Antinociception, efficacy (maximum effect), percent MPE (maximum possible effect) [3]: 100%
- ED50 [4]: 0.8 mg/kg
- Hypothermia (Δtemperature), efficacy (maximum effect) [4]: -3.8 °C
- times more potent than the parent compound (hypothermia) [4, 9]: 19 times
- pIC50 [5]: 7.51
- irreversible inactivation of the receptors [6]: did not irreversibly inactivate the receptors
- specific receptor binding in equilibrated and irradiated membranes [6]: no specific receptor binding was observed
- ED50 [7]: 0.8 mg/kg
- Catalepsy Immobility, efficacy (maximum effect), percent immobility [7]: 57%
- times more potent than the parent compound (catalepsy) [7, 9]: 6.5 times
- ED50 [8]: 0.2 mg/kg
- Locomotion Inhibition, efficacy (maximum effect), percent inhibition [8]: 73%

SMILES: CCCCCc1cc(O)c2c(c1)OC(C)(C)[C@@H]1CC=C(C)C[C@@H]21 [(-)-Δ^8 -THC, reference compound]
- ED50 [3]: 1.5 mg/kg
- Antinociception, efficacy (maximum effect), percent MPE (maximum possible effect) [3]: 100%
- ED50 [4]: 15.5 mg/kg
- Hypothermia (Δtemperature), efficacy (maximum effect) [4]: -5.9 °C
- ED50 [7]: 5.2 mg/kg
- Catalepsy Immobility, efficacy (maximum effect), percent immobility [7]: 58%
- ED50 [8]: 1.9 mg/kg
- Locomotion Inhibition, efficacy (maximum effect), percent inhibition [8]: 79%

Source: patent US5872148A, “Compositions useful as a cannabinoid receptor probe” (University of Connecticut, priority 1995, dated 1999)
